The values that follow come from US20230024304A1, “A MULTICOMPONENT COMPOSITION COMPRISING A COLLAGEN, RESVERATROL AND ASTAXANTHIN AND THE USE THEREOF FOR THE TREATMENT OF TENDINOPATHIES” (KOLINPHARMA S.P.A., priority 2019, published 2023).

The subject of data set [1] is primary human tenocytes. As to the kind of experiment: MTT cytotoxicity test on healthy tenocytes (individual substances and their combination). The note with it: 24 hours. The class given is cell-based. As for the experimental part: The model is based on the use of primary human tenocytes, obtained through isolation from Achilles tendon, purchased from Zen-Bio (TEN-F), cultured and used according to the supplier's instructions. […] Preliminary cytotoxicity studies (i.e. MTT test (3-(4,5-dimethylthiazol-2-yl)-2,5-diphenyltetrazolium bromide) and the subsequent statistical analysis) were conducted on healthy tenocytes treated with the individual substances in order to identify the doses to be used for subsequent experiments, as well as the doses to be mixed to analyse synergism. Cells were seeded in 48 well multiwells, at a density of 6000 cells/well. After 48 ore, they were treated with different concentrations of vitamin C (from 0.88 μg/mL to 352 μg/mL), collagen peptides (from 100 μg/mL to 3000 μg/mL), astaxanthin (from 1 μg/mL to 1000 μg/mL) or resveratrol (from 0.1 μg/mL to 100 μg/mL) for 24 hours. The range of concentrations selected for each substance was determined based on the data reported in literature. The MTT test was conducted at the end of the treatment. […] The formazan deposits in the cells were then solubilised with isopropanol, obtaining a homogeneous solution whose absorbance can thus be measured at the spectrophotometer (absorbance at 510 nm). […]
(In general: Tetrazolium assays rely on reduction of a dye to a coloured formazan, in cell work by metabolically active cells.)

In data set [2] the test system is NF-kB and PI-3K. The note with it: human tenocytes; dose and time-dependent manner; cited from earlier work.

As for `CC1=C(/C=C/C(C)=C/C=C/C(C)=C/C=C/C=C(C)/C=C/C=C(C)/C=C/C2=C(C)C(=O)[C@@H](O)CC2(C)C)C(C)(C)C[C@H](O)C1=O` [astaxanthin], in data set [1] (at the tested doses (collagen 100-3000 μg/mL, astaxanthin 1-1000 μg/mL), results not reported in detail), the “toxicity / cell viability (MTT test)” value is “devoid of toxicity”.

Turning to `Oc1ccc(/C=C/c2cc(O)cc(O)c2)cc1` [resveratrol, 5-[(E)-2-(4-hydroxyphenyl)ethenyl]benzene-1,3-diol], in data set [2], the “IL-1β-induced activation of NF-kB and PI-3K” value is “capable of suppressing IL-1β-induced activation of NF-kB and PI-3K”. In data set [1] (resveratrol 50 and 100 μg/ml), the “effect on cell viability (MTT test)” value was “negative effect on cell viability”.
